# Experimental data reported in paper PMC6837752, “Effectiveness of four types of neuraminidase inhibitors approved in Japan for the treatment of influenza” (PLoS ONE, 2019).
# Several values for one entry are separate records, joined by “and”; a condition that tells them apart may be missing. Equal values may be shown once.
# Assays:
# [1] = test system: H275Y mutated (oseltamivir-resistant) influenza A/H1N1pdm09 virus; settings: human, in vivo
# [2] = test system: oseltamivir and peramivir-resistant influenza A/H1N1pdm09; settings: five cases, treatment with oseltamivir or peramivir; cited from earlier work
# [3] = target: neuraminidase of H275Y mutated influenza A/H1N1pdm09 virus isolates (Influenza A virus (H1N1pdm09), UniProt C3W5S3, H275Y); assay type: biochemical; settings: read-out: 50% inhibitory concentration
Molecule,Time to fever alleviation [1],Time until fever subsided from the start of treatment [2],also measured
"[H]/N=C(\N)N[C@H]1C=C(C(=O)O)O[C@@H]([C@H](OC)[C@H](O)CO)[C@@H]1NC(C)=O [Laninamivir, laninamivir]",≤ 48 h,,
"CCOC(=O)C1=C[C@@H](OC(CC)CC)[C@H](NC(C)=O)[C@@H](N)C1 [Oseltamivir, oseltamivir]",,≤ 48 h,"Average fever duration [1]: 89 h and 89 ± 47 h; Patients with fever alleviated within 48 hours [1]: 40%; Patients with prolonged fever, which continued for more than 100 hours [1]: 60%"
"CC(=O)N[C@H]1[C@H]([C@H](O)[C@H](O)CO)OC(C(=O)O)=C[C@@H]1N=C(N)N [Zanamivir, zanamivir]",≤ 48 h,,
peramivir,,≤ 48 h,IC50 [3]: 24.7 nM and 22.1 nM and 29.8 nM and 19.1 nM and 18.7 nM and 22.4 nM and 23.3 nM
